Measured values as given in PubChem BioAssay AID2060348 (Molecular Pharmacology Branch, DTP, NCI, 2025).
Several values for one entry are separate records, joined by “and”; a condition that tells them apart may be missing. Equal entries are not always repeated. Each block holds one compound with its values, some of them ahead of it.

Test system: 885724-159-R-J1-PDC spheroids viability
Assay: Anticancer human tumor 885724-159-R-J1-PDC patient-derived pancreatic adenocarcinoma cell line growth inhibition [TAK]
Settings: spheroids with HUVEC and MSC; for viability, T/C: stronger effect = lower value
Procedure, shortened: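 Drug combinations, each paired with TAK-243 or ipatasertib, were tested on multi-cell spheroids of 60% malignant cells, 25% HUVEC and 15% hMSC. Top concentrations were at or near the clinical Cmax (10 microM if undetermined), decreasing by half-log; viability is given as % test/control.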

[1] = curve of first compound, second compound 0.3 µM
[2] = curve of first compound, second compound 0.949 µM
[3] = curve of first compound, second compound 3 µM
[4] = curve of first compound, second compound 9.49 µM
[5] = curve of first compound, second compound 30 µM
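Note: spheroids exposed to drugs for seven days.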
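Throughout, for viability, T/C: 100% = DMSO vehicle control viability.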

Structure (SMILES): CC(C)(C)c1nc(-c2cccc(NS(=O)(=O)c3c(F)cccc3F)c2F)c(-c2ccnc(N)n2)s1 + CC(C)NCC(C(=O)N1CCN(c2ncnc3c2C(C)CC3O)CC1)c1ccc(Cl)cc1
IC50 [1]: > 10000 nM | IC50 [2]: > 10000 nM | IC50 [3]: > 10000 nM | IC50 [4]: 8870 nM | IC50 [5]: < 31.6 nM | viability, T/C (second compound 0.3 µM, first compound 0.0316 µM): 85.2% | viability, T/C (second compound 0.3 µM, first compound 0.1 µM): 101% | viability, T/C (second compound 0.3 µM, first compound 0.316 µM): 112% | viability, T/C (second compound 0.3 µM, first compound 1 µM): 134% | viability, T/C (second compound 0.3 µM, first compound 3.16 µM): 134% | viability, T/C (second compound 0.3 µM, first compound 10 µM): 121% | viability, T/C (second compound 0.949 µM, first compound 0.0316 µM): 72.3% | viability, T/C (second compound 0.949 µM, first compound 0.1 µM): 100% | viability, T/C (second compound 0.949 µM, first compound 0.316 µM): 111% | viability, T/C (second compound 0.949 µM, first compound 1 µM): 117% | viability, T/C (second compound 0.949 µM, first compound 3.16 µM): 92.2% | viability, T/C (second compound 0.949 µM, first compound 10 µM): 80.5% | viability, T/C (second compound 3 µM, first compound 0.0316 µM): 68.2% | viability, T/C (second compound 3 µM, first compound 0.1 µM): 90.7% | viability, T/C (second compound 3 µM, first compound 0.316 µM): 94% | viability, T/C (second compound 3 µM, first compound 1 µM): 96% | viability, T/C (second compound 3 µM, first compound 3.16 µM): 73.4% | viability, T/C (second compound 3 µM, first compound 10 µM): 57.6% | viability, T/C (second compound 9.49 µM, first compound 0.0316 µM): 57.1% | viability, T/C (second compound 9.49 µM, first compound 0.1 µM): 71.3% | viability, T/C (second compound 9.49 µM, first compound 0.316 µM): 77% | viability, T/C (second compound 9.49 µM, first compound 1 µM): 76.1% | viability, T/C (second compound 9.49 µM, first compound 3.16 µM): 56.1% | viability, T/C (second compound 9.49 µM, first compound 10 µM): 49.3% | viability, T/C (second compound 30 µM, first compound 0.0316 µM): 37.7% | viability, T/C (second compound 30 µM, first compound 0.1 µM): 41.3% | viability, T/C (second compound 30 µM, first compound 0.316 µM): 46.9% | viability, T/C (second compound 30 µM, first compound 1 µM): 42.7% | viability, T/C (second compound 30 µM, first compound 3.16 µM): 41.6% | viability, T/C (second compound 30 µM, first compound 10 µM): 37.7%

Structure (SMILES): Cn1cnc2c(F)c(Nc3ccc(Br)cc3Cl)c(C(=O)NOCCO)cc21 + CC(C)NCC(C(=O)N1CCN(c2ncnc3c2C(C)CC3O)CC1)c1ccc(Cl)cc1
IC50 [1]: < 9.49 nM | IC50 [2]: < 9.49 nM | IC50 [3]: < 9.49 nM | IC50 [4]: < 9.49 nM | IC50 [5]: < 9.49 nM | viability, T/C (second compound 0.3 µM, first compound 0.00949 µM): 49.1% | viability, T/C (second compound 0.3 µM, first compound 0.03 µM): 42.5% | viability, T/C (second compound 0.3 µM, first compound 0.0949 µM): 29.3% | viability, T/C (second compound 0.3 µM, first compound 0.3 µM): 24.9% | viability, T/C (second compound 0.3 µM, first compound 0.949 µM): 18.8% | viability, T/C (second compound 0.3 µM, first compound 3 µM): 14.1% | viability, T/C (second compound 0.949 µM, first compound 0.00949 µM): 45.2% | viability, T/C (second compound 0.949 µM, first compound 0.03 µM): 41.2% | viability, T/C (second compound 0.949 µM, first compound 0.0949 µM): 30.5% | viability, T/C (second compound 0.949 µM, first compound 0.3 µM): 22.6% | viability, T/C (second compound 0.949 µM, first compound 0.949 µM): 16.6% | viability, T/C (second compound 0.949 µM, first compound 3 µM): 10.3% | viability, T/C (second compound 3 µM, first compound 0.00949 µM): 42% | viability, T/C (second compound 3 µM, first compound 0.03 µM): 37.1% | viability, T/C (second compound 3 µM, first compound 0.0949 µM): 27.5% | viability, T/C (second compound 3 µM, first compound 0.3 µM): 18.7% | viability, T/C (second compound 3 µM, first compound 0.949 µM): 12.6% | viability, T/C (second compound 3 µM, first compound 3 µM): 7.23% | viability, T/C (second compound 9.49 µM, first compound 0.00949 µM): 36.7% | viability, T/C (second compound 9.49 µM, first compound 0.03 µM): 27.9% | viability, T/C (second compound 9.49 µM, first compound 0.0949 µM): 16.8% | viability, T/C (second compound 9.49 µM, first compound 0.3 µM): 13.7% | viability, T/C (second compound 9.49 µM, first compound 0.949 µM): 9.53% | viability, T/C (second compound 9.49 µM, first compound 3 µM): 4.7% | viability, T/C (second compound 30 µM, first compound 0.00949 µM): 20.5% | viability, T/C (second compound 30 µM, first compound 0.03 µM): 13.7% | viability, T/C (second compound 30 µM, first compound 0.0949 µM): 9.15% | viability, T/C (second compound 30 µM, first compound 0.3 µM): 5.41% | viability, T/C (second compound 30 µM, first compound 0.949 µM): 3.69% | viability, T/C (second compound 30 µM, first compound 3 µM): 2.03%

IC50 (curve of compound): 40.9 nM
Structure (SMILES): Cn1cnc2c(F)c(Nc3ccc(Br)cc3Cl)c(C(=O)NOCCO)cc21
viability, T/C (compound 0.00949 µM): 70.7% and 70.3% | viability, T/C (compound 0.03 µM): 53.1% and 54.5% | viability, T/C (compound 0.0949 µM): 38.9% and 38.3% | viability, T/C (compound 0.3 µM): 34.6% and 32.9% | viability, T/C (compound 0.949 µM): 28.6% and 27.2% | viability, T/C (compound 3 µM): 21.2% and 21.8%

IC50 (curve of compound): 52.6 nM and 52.9 nM
Structure (SMILES): CC(C)n1nc(-c2ccc3oc(N)nc3c2)c2c(N)ncnc21
viability, T/C (compound 0.000316 µM): 104% and 108% | viability, T/C (compound 0.001 µM): 103% and 95.1% | viability, T/C (compound 0.00316 µM): 93.3% and 83.8% | viability, T/C (compound 0.01 µM): 67.5% and 70.2% | viability, T/C (compound 0.0316 µM): 54.2% and 51.1% | viability, T/C (compound 0.1 µM): 46.1% and 46%
